This note sets out measurements from PubChem BioAssay AID248 (DTP/NCI, 2004).

Inconclusive results and toxic doses are left out.

The subject of this assay is L1210 leukemia ip in BDF1 mice, survival T/C. Kind of assay: NCI In Vivo Anticancer Drug Screen. Data for tumor model L1210 Leukemia (intraperitoneal) in B6D2F1 (BDF1) mice. The conditions noted are these: endpoint: mean survival time, higher = longer survival. In short, it runs like this: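 Antitumor effect is assessed in tumor-bearing animals. Survival in the compound arm is compared with a vehicle-dosed control arm and expressed as their quotient.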

Setting [1] is: dose: 100.0 mg/kg/injection, schedule: Q04DX003 (ip), vehicle: Klucel (hydroxypropylcellulose) (HPC).
[2] abbreviates: dose: 200.0 mg/kg/injection, schedule: Q04DX003 (ip), vehicle: Klucel (hydroxypropylcellulose) (HPC).
Setting [3] is: dose: 100.0 mg/kg/injection, schedule: Q01DX009 (ip), vehicle: Klucel (hydroxypropylcellulose) (HPC).
Where [4] appears, read: dose: 100.0 mg/kg/injection, schedule: Q04DX003 (ip), vehicle: saline.
Setting [5] is: dose: 200.0 mg/kg/injection, schedule: Q01DX009 (ip), vehicle: Klucel (hydroxypropylcellulose) (HPC).
Where [6] appears, read: dose: 200.0 mg/kg/injection, schedule: Q04DX003 (ip), vehicle: saline.
[7] abbreviates: dose: 400.0 mg/kg/injection, schedule: Q01DX009 (ip), vehicle: Klucel (hydroxypropylcellulose) (HPC).

In the case of `NC(Cc1ccc(OC2CCCC2)c(N(CCCl)CCCl)c1)C(=O)O` (configuration not stated), the T/C (dose: 0.6 mg/kg/injection, schedule: Q01DX009 (ip), vehicle: carboxymethylcellulose (CMC)) is 122 % of control; the T/C (dose: 3.8 mg/kg/injection, schedule: Q01DX009 (ip), vehicle: saline) was 102 % of control; the T/C (dose: 4.4 mg/kg/injection, schedule: Q01DX001 (ip), vehicle: carboxymethylcellulose (CMC)) is 107 % of control; the T/C (dose: 5.7 mg/kg/injection, schedule: Q01DX009 (ip), vehicle: saline) is 103 % of control; the T/C (dose: 6.6 mg/kg/injection, schedule: Q01DX001 (ip), vehicle: carboxymethylcellulose (CMC)) is 111 % of control; the T/C (dose: 8.5 mg/kg/injection, schedule: Q01DX001 (ip), vehicle: carboxymethylcellulose (CMC)) is 111 % of control. Also, the T/C runs as follows: (dose: 8.5 mg/kg/injection, schedule: Q01DX009 (ip), vehicle: carboxymethylcellulose (CMC)) 155 % of control; (dose: 8.5 mg/kg/injection, schedule: Q01DX009 (ip), vehicle: saline) 110 % of control; (dose: 8.8 mg/kg/injection, schedule: Q01DX009 (ip), vehicle: carboxymethylcellulose (CMC)) 115 % of control; (dose: 10.0 mg/kg/injection, schedule: Q01DX001 (ip), vehicle: carboxymethylcellulose (CMC)) 120 % of control; (dose: 13.0 mg/kg/injection, schedule: Q01DX001 (ip), vehicle: carboxymethylcellulose (CMC)) 114 % of control; (dose: 13.0 mg/kg/injection, schedule: Q01DX009 (ip), vehicle: carboxymethylcellulose (CMC)) 152 % of control. In addition, the T/C by setting is: (dose: 13.3 mg/kg/injection, schedule: Q01DX009 (ip), vehicle: carboxymethylcellulose (CMC)) 88 % of control; (dose: 20.0 mg/kg/injection, schedule: Q01DX009 (ip), vehicle: carboxymethylcellulose (CMC)) 215 % of control; (dose: 20.0 mg/kg/injection, schedule: Q01DX009 (ip), vehicle: saline) 119 % of control; (dose: 30.0 mg/kg/injection, schedule: Q01DX001 (ip), vehicle: carboxymethylcellulose (CMC)) 202 % of control; (dose: 30.0 mg/kg/injection, schedule: Q01DX009 (ip), vehicle: saline) 98 % of control.
On to `CC1(C)CC(=O)C=C(NC2CCCCC2)C1`, for which the T/C by setting is: (dose: 50.0 mg/kg/injection, schedule: Q01DX009 (ip), vehicle: saline sonified) 94 % of control; (dose: 100.0 mg/kg/injection, schedule: Q01DX009 (ip), vehicle: saline sonified) 103 % of control; under setting [1], 96 % of control; (dose: 200.0 mg/kg/injection, schedule: Q01DX009 (ip), vehicle: saline sonified) 92 % of control; under setting [2], 98 % of control.
As for `COC(=O)CN(c1c(C)cc(C)c(N)c1C)S(=O)(=O)c1ccccc1`, the T/C by setting is: (dose: 100.0 mg/kg/injection, schedule: Q01DX001 (ip), vehicle: Klucel (hydroxypropylcellulose) (HPC)) 95 % of control; under setting [1], 96 % of control; (dose: 200.0 mg/kg/injection, schedule: Q01DX001 (ip), vehicle: Klucel (hydroxypropylcellulose) (HPC)) 103 % of control; under setting [2], 100 % of control; (dose: 400.0 mg/kg/injection, schedule: Q01DX001 (ip), vehicle: Klucel (hydroxypropylcellulose) (HPC)) 97 % of control; (dose: 400.0 mg/kg/injection, schedule: Q04DX003 (ip), vehicle: Klucel (hydroxypropylcellulose) (HPC)) 107 % of control.
For the compound `CSc1ccccc1C(O)Cc1ccc([N+](=O)[O-])cc1` (configuration not stated), the T/C under setting [3] is 105 % of control; the T/C under setting [4] was 98 % of control; the T/C under setting [5] is 93 % of control; the T/C under setting [6] is 98 % of control; the T/C under setting [7] is 96 % of control; the T/C (dose: 400.0 mg/kg/injection, schedule: Q04DX003 (ip), vehicle: saline) is 95 % of control.
Regarding `Cn1ncc(C(=O)O)c1NN=O`, the T/C by setting is: (dose: 50.0 mg/kg/injection, schedule: Q04DX003 (ip), vehicle: saline) 104 % of control; (dose: 100.0 mg/kg/injection, schedule: Q01DX001 (ip), vehicle: carboxymethylcellulose (CMC)) 106 % of control; under setting [4], 105 % of control; (dose: 200.0 mg/kg/injection, schedule: Q01DX001 (ip), vehicle: carboxymethylcellulose (CMC)) 108 % of control; under setting [6], 96 % of control; (dose: 400.0 mg/kg/injection, schedule: Q01DX001 (ip), vehicle: carboxymethylcellulose (CMC)) 102 % of control.
`O=C(/C=C/c1ccccc1)c1ccccn1`: the T/C reads like this: (dose: 100.0 mg/kg/injection, schedule: Q04DX003 (ip), vehicle: saline with Tween-80) 100 % of control; (dose: 200.0 mg/kg/injection, schedule: Q04DX003 (ip), vehicle: saline with Tween-80) 104 % of control; (dose: 400.0 mg/kg/injection, schedule: Q04DX003 (ip), vehicle: saline with Tween-80) 100 % of control.
For the compound `NNc1nncc(-c2ccccc2)n1`, the T/C is, setting by setting: (dose: 25.0 mg/kg/injection, schedule: Q01DX001 (ip), vehicle: other) 100 % of control; (dose: 50.0 mg/kg/injection, schedule: Q01DX001 (ip), vehicle: other) 103 % of control; (dose: 200.0 mg/kg/injection, schedule: Q01DX001 (ip), vehicle: other) 105 % of control.
Turning to `O=C(C1C(c2ccccc2)C1c1ccccc1)N(CCO)Cc1ccccc1` (configuration not stated), the T/C was 94 % of control (dose: 25.0 mg/kg/injection, schedule: Q04DX002 (ip), vehicle: Klucel (hydroxypropylcellulose) (HPC)); 103 % of control (dose: 50.0 mg/kg/injection, schedule: Q04DX002 (ip), vehicle: Klucel (hydroxypropylcellulose) (HPC)); 94 % of control (dose: 100.0 mg/kg/injection, schedule: Q04DX002 (ip), vehicle: Klucel (hydroxypropylcellulose) (HPC)).
With `CCCCCCCCCCCC[n+]1cccc(C)c1`, the T/C (dose: 5.0 mg/kg/injection, schedule: Q01DX001 (ip), vehicle: saline) is 94 % of control.
In the case of `CC(=O)OC(C)c1ccc(Cl)cc1` (configuration not stated), the T/C reads like this: (dose: 100.0 mg/kg/injection, schedule: Q04DX002 (ip), vehicle: saline with Tween-80) 101 % of control; (dose: 200.0 mg/kg/injection, schedule: Q04DX002 (ip), vehicle: saline with Tween-80) 97 % of control; (dose: 400.0 mg/kg/injection, schedule: Q04DX002 (ip), vehicle: saline with Tween-80) 93 % of control.
In the case of `O=C(CCCc1ccc(N(CCCl)CCCl)cc1)Nc1ncccn1`, the T/C runs as follows: (dose: 1.0 mg/kg/injection, schedule: Q01DX015 (ip), vehicle: carboxymethylcellulose (CMC)) 113 % of control; (dose: 3.0 mg/kg/injection, schedule: Q01DX015 (ip), vehicle: carboxymethylcellulose (CMC)) 118 % of control; (dose: 6.0 mg/kg/injection, schedule: Q01DX015 (ip), vehicle: carboxymethylcellulose (CMC)) 118 % of control; (dose: 6.25 mg/kg/injection, schedule: Q01DX001 (ip), vehicle: saline) 110 % of control; (dose: 12.0 mg/kg/injection, schedule: Q01DX015 (ip), vehicle: carboxymethylcellulose (CMC)) 123 % of control; (dose: 12.5 mg/kg/injection, schedule: Q01DX001 (ip), vehicle: saline) 110 % of control. Besides, where the note is “dose: 25.0 mg/kg/injection, schedule: Q01DX001 (ip), vehicle: saline”, the T/C was 121 % of control.
With `c1ccc(C2OCCCO2)cc1`, the T/C reads like this: (dose: 12.5 mg/kg/injection, schedule: Q01DX009 (ip), vehicle: Klucel (hydroxypropylcellulose) (HPC)) 92 % of control; (dose: 25.0 mg/kg/injection, schedule: Q01DX009 (ip), vehicle: Klucel (hydroxypropylcellulose) (HPC)) 100 % of control; under setting [7], 87 % of control.
Turning to `Cc1cccc(OC(=O)Nc2cccc3ccccc23)c1`, the T/C reads like this: under setting [3], 93 % of control; under setting [5], 87 % of control; under setting [7], 96 % of control.
As for `C=CC1(C)CCC(=O)N1` (configuration not stated), the T/C runs as follows: (dose: 75.0 mg/kg/injection, schedule: Q04DX003 (ip), vehicle: other) 104 % of control; (dose: 150.0 mg/kg/injection, schedule: Q04DX003 (ip), vehicle: other) 98 % of control; (dose: 300.0 mg/kg/injection, schedule: Q04DX003 (ip), vehicle: other) 98 % of control.
`c1cc[c]([Sn]([c]2ccccc2)([CH]2CCCCC2)[CH]2CCCCC2)cc1`: the T/C reads like this: (dose: 75.0 mg/kg/injection, schedule: Q04DX002 (ip), vehicle: gum acacia) 96 % of control; (dose: 150.0 mg/kg/injection, schedule: Q04DX002 (ip), vehicle: gum acacia) 101 % of control; (dose: 300.0 mg/kg/injection, schedule: Q04DX002 (ip), vehicle: gum acacia) 96 % of control.
